Measured values taken from patent EP2397458A1, “Organic salts and co-crystals of phenylbutyric acid” (Lunamed AG, priority 2010, dated 2011).
Structures can show the parent of a compound that is named as a salt.

How the values were obtained:
[1] = Aqueous solubility determination (saturated solution, HPLC; pH of saturated solution); assay type: physicochemical; conditions: for solubility at 24 h: doubly distilled water, after 24 h of equilibration at 25°C; for pH of the corresponding saturated solution: saturated aqueous solution after 24 h at 25°C
Procedure: (§1) For this measurement approximately 1.0 mL of doubly distilled water was added to 18 mg of the substance according Example 1 to be measured. The resulting suspension was equilibrated in a temperature-controlled Eppendorf Thermomixer Comfort shaker for 24 h at 25°C at a shaking rate of 600 rpm. The solid phase was recovered by filter centrifugation (0.10-µm PVDF membrane) and examined by FT-Raman spectroscopy. Concentrations in the filtrate (i.e., saturated solutions) were determined by HPLC (see below). The pH of the saturated solution was determined with a Metrohm 713 pH meter. HPLC: TSP instrument with P4000 pump, AS3000 autosampler, SCM1000 degasser, UV3000 detector, and PC1000 Vers. 4.1 software. Table 4: HPLC method used for solubility determinations.
as §1, with “8:” for “4:”

[2] = DVS / hygroscopy measurement; assay type: physicochemical; conditions: for hygroscopy: DVS humidity program 50 → 95 → 0 → 50% r.h.
Procedure: For the measurement of hygroscopy of the salt a Projekt Messtechnik Sorptions Prüfsystem SPS 11 - 100n was used. (Hygroscopy of the phenylbutyric acid for comparison was measured with the Surface Measurement Systems DVS-1 ). The salt sample was placed on an aluminium (SPS 11) holder (for phenylbutyric acid on a platinum holder (DVS-1)) on top of a microbalance and allowed to equilibrate for 2 h at 50% r.h. before starting the pre-defined humidity program: • (1)2hat50%r.h. • (2) 50 → 95% r.h. (5%/h); 5 h at 95% r.h. • (3) 95 → 0% r.h. (5%/h); 5 h at 0% r.h. • (4) 0 → 50% r.h. (5%/h); 2 h at 50% r.h.
For the measurement of hygroscopy of the salt a Projekt Messtechnik Sorptions Prüfsystem SPS 11 - 100n was used. (Hygroscopy of the phenylbutyric acid for comparison was measured with the Surface Measurement Systems DVS-1). The salt sample was placed on an aluminium (SPS 11) holder (for phenylbutyric acid on a platinum holder (DVS-1)) on top of a microbalance and allowed to equilibrate for 2 h at 50% r.h. before starting the pre-defined humidity program: • (1)2hat50%r.h. • (2) 50 → 95% r.h. (5%/h); 5 h at 95% r.h. • (3) 95 → 0% r.h. (5%/h); 5 h at 0% r.h. • (4) 0 → 50% r.h. (5%/h); 2 h at 50% r.h. […] However, raising the relative humidity further from 80 to 95% r.h. results in a steep gain of -10 wt.-%. Upon lowering the relative humidity, the mass decreases only slightly (by -2.2 w1.-%) until a relative humidity of -60 % r.h. is reached. Then a steep loss of -10 wt.-% occurs until the mass of the starting material is reached at -45% r.h. […] Upon lowering the relative humidity from 50 to 0% r.h. a mass loss of -0.3 wt.-% is observed, but it is fully reversible. At the end of the cycle the sample had essentially the same mass as the starting material. […] A sesquihydrate of the hemi-benzathine salt (1 :0.5:1.5 phenylbutyrate:benzathine:H2O) has a theoretical water content of 9.5 wt.-%. A reversible hydrate formation occurred during the DVS experiment.

SMILES	solubility at 24 h ([1]; value corresponds to a hydrate of the benzathine salt, not to the anhydrous form) [µg/mL]	pH of the corresponding saturated solution ([1]; hydrate formed and precipitated during equilibration)	gradual mass gain ([2]; DVS, increasing the relative humidity from 50 to 80% r.h.) [wt.-%]	mass loss ([2]; DVS, lowering the relative humidity from 50 to 0% r.h., fully reversible) [wt.-%]	mass decrease ([2]; DVS, lowering the relative humidity from 95% until -60 % r.h. is reached) [w1.-%]	steep loss (mass) ([2]; DVS, lowering the relative humidity from -60 % r.h. until -45% r.h. (mass of starting material reached)) [wt.-%]	steep gain (mass) ([2]; DVS, raising the relative humidity from 80 to 95% r.h.) [wt.-%]	pH of the corresponding saturated solution [1]	solubility at 24 h ([1]; water, solid residue Raman spectrum unchanged) [µg/mL]	hygroscopy [2]	hygroscopy ([2]; listed as 4-Phenylbutyrate-Mono-Benethamine salt)
O=C(O)CCCc1ccccc1 [Example 2, 4-Phenylbutyrate-Hemi-Benzathine salt]	1700	6.2	-1.3	-0.3	-2.2	-10	-10				
O=C(O)CCCc1ccccc1 [Example 1, 4-Phenylbutyrate-Mono-Benethamine salt]								7.2	1900	not hygroscopic	non-hygroscopic
